# Where two headings read alike, the source gives them in different places. *1 amine or outer side, *2 acyl side, *3 side chain or, on linkers, in order; H or OH if unused. Where a SMILES comes first, the peptide text is derived from it. [ ]: non-standard residue; d: D form. ξ: configuration not given here. ξ(4-Aminopyrrolidine-3-CO) = O=C(C1CNCC1N[*:1])[*:2]; β3hR = N=C(N)NCCC[C@H](N)CC(=O)O; β3hT = C[C@@H](O)[C@H](N)CC(=O)O; β3hE = N[C@@H](CCC(=O)O)CC(=O)O; X1 = O=C(C1CCCC1N[*:1])[*:2]
# Key:
# [1] = molecular target: gp41-5 (Human immunodeficiency virus type 1 group M subtype B, UniProt P04578, C598G/DEL582-595/DEL601-626/T627G/W596S); experiment: biochemical; type: binding, HIV; conditions: for Ki: competition FP
# [2] = molecular target: T1, proteinase K (Parengyodontium album, UniProt P06873); conditions: relative to 3
# [3] = molecular target: T1, proteinase K; experiment: in vitro; conditions: for half-life at 20 μM: proteinase K solution in TBS
# [4] = molecular target: T2, NHR α-peptide 1 (Human immunodeficiency virus type 1 group M subtype B, UniProt P04578); experiment: CD thermal unfolding of 1:1 NHR + CHR peptide mixtures; type: physicochemical, HIV; conditions: Table 2; CD at 222 nm, 1:1 mixture with NHR α-peptide 1, PBS, 20 μM total peptide
# T2 construct: made in house; host or cells: chemical synthesis (Fmoc solid phase)
# Experimental: The interactions of select α/β-peptides with the gp41 NHR domain were further investigated by circular dichroism (CD) spectroscopy. The CD spectra of 3, 4, 5, 8, 9 and were measured, both alone (see FIG. 5A) and in a 1:1 mixture with NHR α-peptide 1 (see FIGS. 3A, 3B, 3C, and 3D, respectively). See also FIGS. 5B and 5C for the superimposed spectra. […] The magnitude of the CD signatures among the well-folded mixtures (1+3, 1+5 and 1+10, FIGS. 3A, 3C, and 3D, respectively) are similar, but the ratio of intensities at 208 and 222 nm changes as a function of β-residue content (more β-residues tracks with a less intense peak at 222 nm).
# The interactions of CHR α-peptide 3 and α/β-peptide analogues 4, 5, 8 and 10 with a peptide derived from the gp41 NHR domain (1) were investigated by circular dichroism (CD) spectroscopy. […] The magnitude of the CD signatures among the well-folded mixtures (1+3, 1+5, 1+8 and 1+10) are similar, but the ratio of intensities at 208 and 222 nm changes as a function of β-residue content (higher β-residue content is correlated with a less intense peak at 222 nm). This trend is consistent with previous studies on helical oligomers containing mixed α/β backbones.
# Circular Dichroism Spectroscopy. Circular dichroism measurements were carried out on an Aviv 202SF Circular Dichroism Spectrophotometer. Samples of each peptide were prepared at 20 μM concentration in PBS. Solutions of 1:1 peptide mixtures were prepared by mixing equal volumes from the same 20 μM stock solutions used for individual peptide measurements. Spectra were recorded in a 1 mm cell with a step size of 1 nm and an averaging time of 5 sec. All spectra are background corrected against buffer measured in the same cell. Thermal melts were carried out in 5-degree increments with an equilibration time of 10 min between each temperature change. Thermal unfolding data were fit to a simple two state folding model Shortle, D.; Meeker, A. K.; Freire, E. Biochemistry 1988, 27, 4761-4768) using GraphPad Prism.
# [5] = test system: HIV-1 CC 1/85; conditions: read-out: Inhibition of HIV-1 infectivity, IC50 (nM), R5 strains, CC 1/85; TZM-bl cells; mean ± S.E.M., three experiments
# [6] = test system: HIV-1 NL4-3; conditions: read-out: Inhibition of HIV-1 infectivity, IC50 (nM), X4 strains, NL4-3; TZM-bl cells; mean ± S.E.M., three experiments
# [7] = test system: HIV-1 DJ258; conditions: read-out: Inhibition of HIV-1 infectivity, IC50 (nM), R5 strains, DJ258; TZM-bl cells; mean ± S.E.M., three experiments
# [8] = molecular target: T3, envelope glycoprotein of the HIV-1 clone HXB2 (Human immunodeficiency virus type 1 group M subtype B, UniProt P04578); experiment: cell-cell fusion assay; type: cell-based
# T3 construct: One cell line expresses HIV-1 Env (processed by cellular proteases to generate gp120+gp41); expressed in transfected cells; host or cells: CHO cells expressing HXB2 env (and Tat); U373-MAGI target cells
# [9] = test system: HIV-1 HC4; conditions: read-out: Inhibition of HIV-1 infectivity, IC50 (nM), X4 strains, HC4; TZM-bl cells; mean ± S.E.M., three experiments
# T1 sequence (P06873 106-384): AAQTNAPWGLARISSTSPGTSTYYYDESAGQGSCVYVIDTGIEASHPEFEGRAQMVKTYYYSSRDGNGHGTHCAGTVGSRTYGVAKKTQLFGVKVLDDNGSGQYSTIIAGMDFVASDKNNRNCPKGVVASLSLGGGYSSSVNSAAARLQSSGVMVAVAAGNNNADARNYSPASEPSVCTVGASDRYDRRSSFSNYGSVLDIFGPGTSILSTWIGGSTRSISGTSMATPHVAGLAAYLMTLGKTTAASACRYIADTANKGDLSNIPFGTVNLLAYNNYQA
structure (smiles),measurement,setting,value
CC[C@H](C)[C@H](NC(=O)[C@H](C)NC(=O)[C@H](CCCNC(=N)N)NC(=O)[C@H](CC(=O)O)NC(=O)[C@H](Cc1c[nH]c2ccccc12)NC(=O)[C@H](C)NC(=O)[C@H](CCC(=O)O)NC(=O)[C@H](Cc1c[nH]c2ccccc12)NC(=O)[C@@H](NC(=O)[C@@H](NC(C)=O)[C@@H](C)O)[C@@H](C)O)C(=O)N[C@@H](C)C(=O)N[C@@H](CCC(=O)O)C(=O)N[C@@H](Cc1ccc(O)cc1)C(=O)N[C@@H](C)C(=O)N[C@@H](C)CC(=O)N[C@@H](CCCNC(=N)N)C(=O)N[C@H](C(=O)N[C@@H](CCC(=O)O)C(=O)N[C@@H](C)CC(=O)N[C@@H](CC(C)C)C(=O)N[C@H](C(=O)N[C@@H](CCCNC(=N)N)CC(=O)N[C@@H](C)C(=O)N[C@@H](C)C(=O)N[C@@H](CCC(N)=O)C(=O)N[C@@H](CCC(=O)O)CC(=O)N[C@@H](CCC(N)=O)C(=O)N[C@@H](CCC(N)=O)C(=O)N[C@@H](CCC(=O)O)CC(=O)N[C@@H](CCCCN)C(=O)N[C@@H](CC(N)=O)C(=O)N[C@@H](CCC(=O)O)C(=O)N[C@@H](C)CC(=O)N[C@@H](C)C(=O)N[C@@H](CC(C)C)C(=O)N[C@@H](CCCNC(=N)N)CC(=O)N[C@@H](CCC(=O)O)C(=O)N[C@@H](CC(C)C)C(N)=O)[C@@H](C)CC)[C@@H](C)CC [compound 6],Ki,"[1]; Table 2, read-out: gp41-5 Ki",15 nM
CC[C@H](C)[C@H](NC(=O)[C@H](C)NC(=O)C[C@H](CCCNC(=N)N)NC(=O)[C@H](CC(=O)O)NC(=O)[C@H](Cc1c[nH]c2ccccc12)NC(=O)C[C@H](CCC(=O)O)NC(=O)[C@H](CCC(=O)O)NC(=O)[C@H](Cc1c[nH]c2ccccc12)NC(=O)[C@@H](NC(=O)C[C@H](CCCNC(=N)N)NC(C)=O)[C@@H](C)O)C(=O)N[C@@H](C)C(=O)N[C@@H](CCC(=O)O)CC(=O)N[C@@H](Cc1ccc(O)cc1)C(=O)N[C@@H](C)C(=O)N[C@@H](CCCNC(=N)N)CC(=O)N[C@@H](CCCNC(=N)N)C(=O)N[C@H](C(=O)N[C@@H](CCC(=O)O)C(=O)N[C@@H](CCC(=O)O)CC(=O)N[C@@H](CC(C)C)C(=O)N[C@H](C(=O)N[C@@H](CCCNC(=N)N)CC(=O)N[C@@H](C)C(=O)N[C@@H](C)C(=O)N[C@@H](CCC(N)=O)C(=O)N[C@@H](CCC(=O)O)CC(=O)N[C@@H](CCC(N)=O)C(=O)N[C@@H](CCC(N)=O)C(=O)N[C@@H](CCCNC(=N)N)CC(=O)N[C@@H](CCCCN)C(=O)N[C@@H](CC(N)=O)C(=O)N[C@@H](CCC(=O)O)C(=O)N[C@@H](CCC(=O)O)CC(=O)N[C@@H](C)C(=O)N[C@@H](CC(C)C)C(=O)N[C@@H](CCCNC(=N)N)CC(=O)N[C@@H](CCC(=O)O)C(=O)N[C@@H](CC(C)C)C(N)=O)[C@@H](C)CC)[C@@H](C)CC [compound 17] (Ac-[β3hR]TWE[β3hE]WD[β3hR]AIA[β3hE]YA[β3hR]RIE[β3hE]LI[β3hR]AAQ[β3hE]QQ[β3hR]KNE[β3hE]AL[β3hR]EL-NH2),Ki,[1]; read-out: Ki for gp41-5,11 nM
"CC[C@H](C)[C@H](NC(=O)[C@H](C)NC(=O)C1CNCC1NC(=O)[C@H](CC(=O)O)NC(=O)[C@H](Cc1c[nH]c2ccccc12)NC(=O)C1CCCC1NC(=O)[C@H](CCC(=O)O)NC(=O)[C@H](Cc1c[nH]c2ccccc12)NC(=O)[C@@H](NC(=O)C[C@@H](NC(C)=O)[C@@H](C)O)[C@@H](C)O)C(=O)N[C@@H](C)C(=O)N[C@@H](CCC(=O)O)CC(=O)N[C@@H](Cc1ccc(O)cc1)C(=O)N[C@@H](C)C(=O)NC1CCCC1C(=O)N[C@@H](CCCNC(=N)N)C(=O)N[C@H](C(=O)N[C@@H](CCC(=O)O)C(=O)NC1CCCC1C(=O)N[C@@H](CC(C)C)C(=O)N[C@H](C(=O)NC1CNCC1C(=O)N[C@@H](C)C(=O)N[C@@H](C)C(=O)N[C@@H](CCC(N)=O)C(=O)N[C@@H](CCC(=O)O)CC(=O)N[C@@H](CCC(N)=O)C(=O)N[C@@H](CCC(N)=O)C(=O)N[C@@H](CCC(=O)O)CC(=O)N[C@@H](CCCCN)C(=O)N[C@@H](CC(N)=O)C(=O)N[C@@H](CCC(=O)O)C(=O)NC1CCCC1C(=O)N[C@@H](C)C(=O)N[C@@H](CC(C)C)C(=O)NC1CNCC1C(=O)N[C@@H](CCC(=O)O)C(=O)N[C@@H](CC(C)C)C(N)=O)[C@@H](C)CC)[C@@H](C)CC (stereo partly drawn) [compound 10, Ac-TTWEXWDZAIAEYAXRIEXLIZAAQEQQEKNEXALZEL-NH2] (Ac-[β3hT]TWE[X1]WD[ξ(4-Aminopyrrolidine-3-CO)]AIA[β3hE]YA[X1]RIE[X1]LI[ξ(4-Aminopyrrolidine-3-CO)]AAQ[β3hE]QQ[β3hE]KNE[X1]AL[ξ(4-Aminopyrrolidine-3-CO)]EL-NH2)",fold improvement in stability to proteinase K relative to α-peptide 3,[2],280 fold
same,half-life,[3],200 min
same,NHR + CHR Tm (° C.),[4],55 °C
same,fold difference in affinity for gp41-5 relative to 5,[1],> 45 fold
same,fold higher affinity for gp41-5 relative to 4,[1]; relative to 4,~380 fold
same,fold improvement of Ki relative to 9,[1]; relative to 9,~10 fold
CC[C@H](C)[C@H](NC(=O)[C@H](C)NC(=O)C[C@H](CCCNC(=N)N)NC(=O)[C@H](CC(=O)O)NC(=O)[C@H](Cc1c[nH]c2ccccc12)NC(=O)C[C@H](C)NC(=O)[C@H](CCC(=O)O)NC(=O)[C@H](Cc1c[nH]c2ccccc12)NC(=O)[C@@H](NC(=O)C[C@@H](NC(C)=O)[C@@H](C)O)[C@@H](C)O)C(=O)N[C@@H](C)C(=O)N[C@@H](CCC(=O)O)CC(=O)N[C@@H](Cc1ccc(O)cc1)C(=O)N[C@@H](C)C(=O)N[C@@H](C)CC(=O)N[C@@H](CCCNC(=N)N)C(=O)N[C@H](C(=O)N[C@@H](CCC(=O)O)C(=O)N[C@@H](C)CC(=O)N[C@@H](CC(C)C)C(=O)N[C@H](C(=O)N[C@@H](CCCNC(=N)N)CC(=O)N[C@@H](C)C(=O)N[C@@H](C)C(=O)N[C@@H](CCC(N)=O)C(=O)N[C@@H](CCC(=O)O)CC(=O)N[C@@H](CCC(N)=O)C(=O)N[C@@H](CCC(N)=O)C(=O)N[C@@H](CCC(=O)O)CC(=O)N[C@@H](CCCCN)C(=O)N[C@@H](CC(N)=O)C(=O)N[C@@H](CCC(=O)O)C(=O)N[C@@H](C)CC(=O)N[C@@H](C)C(=O)N[C@@H](CC(C)C)C(=O)N[C@@H](CCCNC(=N)N)CC(=O)N[C@@H](CCC(=O)O)C(=O)N[C@@H](CC(C)C)C(N)=O)[C@@H](C)CC)[C@@H](C)CC [compound 4],IC50,[5],1300 ± 100 nM
same,IC50,[6],700 ± 60 nM
same,IC50,[7],960 ± 200 nM
same,fold improvement in stability to proteinase K relative to α-peptide 3,[2],20 fold
same,half-life at 20 μM,[3]; Tritirachium album (source organism of proteinase K),14 min
same,half-life at 20 μM,[3],14 min
same,Ki,"[1]; Table 2, read-out: gp41-5 Ki",3800 nM
same,IC50,[8],390 ± 40 nM
same,IC50,[9],590 ± 100 nM
